Here are results for three molecules from patent US8324267B2, “Kinase inhibitors and the use thereof” (Forschungzentrum Karlsruhe GmbH, priority 2001, dated 2012).

Each structure is given as a SMILES string. “Also recorded” adds a separate entry of the source.

Experiment [1] concerns the target VEGFR-3 (Homo sapiens, UniProt P35916). Briefly: In vitro tyrosine kinase assay (ELISA, GST kinase, polyGlu,Tyr 4:1 acceptor). The class given is biochemical. Conditions: read-out: inhibition (−) or stimulation (+) of kinase activity relative to the control; for inhibition at 1 µg/mL: inhibitor 1 μg/ml; for inhibition at 10 µg/mL: inhibitor 10 μg/ml. Here is the method:
(§1) The inhibition of various receptor tyrosine kinases in vitro by MAE87, MAE106 and MAZ51 was investigated. The inhibitors were investigated in 2 different concentrations (1 μg/ml and 10 μg/ml). The inhibition is stated in %. “+”=stimulation of kinase activity relative to the control,
(§2) “−”=inhibition of kinase activity relative to the control.
(§3) The activity of the RTK inhibitors were determined with the aid of an ELISA. In this assay, the corresponding kinases were employed as recombinant GST fusion proteins (glutathione S-transferase). Synthetic polyGlu, Tyr 4:1 is used as acceptor. The ability of different concentrations of the test substances to inhibit the RTK-mediated phosphorylation of the abovementioned acceptor was assessed. All the tests were carried out in duplicate.
(§4) ELISA plates were coated with 0.2 mg/ml of polyGlu, Tyr 4:1 in 100 mM bicarbonate buffer (pH 9.6) overnight. This solution was removed and the microtiter plates were washed twice with TBS buffer (10 mM Tris-HCl, pH 8.1, 100 mM NaCl) and then blocked with 5% BSA/TBS for 30 min. 50 μl of test substance (2 or 20 μg/ml in 10% DMSO), 25 μl of GST kinase in 4× kinase buffer (200 mM HEPES, 100 mM NaCl, 80 μM Na3VO4 and 0.04% BSA) were introduced. The reaction was started by adding 25 μl of 160 μM ATP (in 40 mM MnCl2) as substrate of the kinases. The final concentrations of the test compounds is thus 1 or 10 μg/ml in 5% DMSO. The GST fusion proteins were employed in the following concentrations. VEGFR-2 50 NG/well, VEGFR-3 300 ng/well, Tie2 300 ng/well, EGFR 50 ng/well, ErbB2 200 ng/well, IGF-1R 50 ng/well, FGFR1 200 ng/well. The reaction mixture was incubated at 30° C. for 90 min. The kinase reaction was stopped by adding 50 μl of 30 mM EDTA/well. The microtiter plates were washed twice with 0.05% Tween20/TBS. Anti-phosphotyrosine antibody (1:500) was added in 0.05% Tween20/TBS (with 0.5% BSA, 0.025% skimmed milk powder and 100 μM Na3VO4) and incubated at 37° C. for 1 h. The microtiter plates were washed three times with 0.05% Tween20/TBS. The HRP-conjugated detection autibody (1:1000) was added in 0.05% Tween20/TBS (with 0.5% BSA, 0.025% skimmed milk powder and 100 μM Na3VO4) and incubated at 37° C. for 1 h. The microtiter plates were washed three times with 0.05% Tween20/TBS. ABTS (2,2′-azino-di-(3-ethylbenz-thiazoline-6-sulfonate)) substrate (Roche Diagnostics GmbH, Mannheim) was added. The OD was determined at 405 nm using an ELISA reader.
For orientation: An ELISA detects its analyte on a solid surface through an enzyme-linked reagent.

The target in experiment [2] is ErbB2 (Homo sapiens, UniProt P04626). Described as above. The class given is biochemical. Conditions: read-out: inhibition (−) or stimulation (+) of kinase activity relative to the control; for inhibition at 1 µg/mL: inhibitor 1 μg/ml; for inhibition at 10 µg/mL: inhibitor 10 μg/ml. How it is done: as §1, §2, §3, §4
Experiment [3] has as its target FGFR1 (Homo sapiens, UniProt P11362). The description is as above. The class given is biochemical. The conditions noted are these: read-out: inhibition (−) or stimulation (+) of kinase activity relative to the control; for inhibition at 1 µg/mL: inhibitor 1 μg/ml; for inhibition at 10 µg/mL: inhibitor 10 μg/ml. Here is the method:
as §1, §2, §3, §4

Experiment [4] addresses IGF1R (Homo sapiens, UniProt P08069). Described as above. In kind it is biochemical. Conditions: read-out: inhibition (−) or stimulation (+) of kinase activity relative to the control; for inhibition at 1 µg/mL: inhibitor 1 μg/ml; for inhibition at 10 µg/mL: inhibitor 10 μg/ml. How it is done: as §1, §2, §3, §4
Experiment [5] deals with EGFR (Homo sapiens, UniProt P00533). Described as above. The class given is biochemical. Conditions: read-out: inhibition (−) or stimulation (+) of kinase activity relative to the control; for inhibition at 1 µg/mL: inhibitor 1 μg/ml; for inhibition at 10 µg/mL: inhibitor 10 μg/ml. Here is the method:
as §1, §2, §3, §4

The target in experiment [6] is Tie2 (Homo sapiens, UniProt Q02763). Described as above. The class given is biochemical. The conditions noted are these: read-out: inhibition (−) or stimulation (+) of kinase activity relative to the control; for inhibition at 1 µg/mL: inhibitor 1 μg/ml; for inhibition at 10 µg/mL: inhibitor 10 μg/ml. Here is the method:
as §1, §2, §3, §4

In experiment [7] the test system is chorioallantoic membrane (CAM). Briefly: Chorioallantoic membrane (CAM) angiogenesis assay. The conditions noted are these: chick embryos, 100 μg of inhibitor on methylcellulose disk, day 5 to day 7; FIG. 3. The class given is in vivo. Here is the method:
The chorioallantoic membrane (CAM) assay was carried out as described (Wernert et al.) with chick embryos 5 days after fertilization. Methylcellulose disks (diameter 2 mm) with 100 μg of inhibitor were applied to the CAMs. Evaluation took place on day 7. A. negative control B. MAE 106-treated egg.
FIG. 3: Inhibition of angiogenesis in a chorioallantoic membrane (CAM). A: sham-treated cells (control). B: Mae106-treated cells of the CAM.

The test system of experiment [8] is rat tumor cell lines (ASML, 1AS, G, AT6.1, MTLN3, MTLY, NM081 and MT450). The experiment can be described thus: Tumor cell proliferation, 3H-thymidine incorporation. In kind it is cell-based. Conditions: 2.5 μM or 10 μM, 24 h, FIG. 4. Here is the method: Cells of the rat tumor cell line (Nestl et al., 2001, Cancer Research 61: 1569-1577) were cultivated in the presence of 1% DMSO (solvent control), 2.5 μM or 10 μM of the indolinone for 24 h. Tritiated thymidine was added to the medium during the last 4-6 h of incubation. The cells were harvested and the amount of radioactivity incorporated into the DNA was quantified.
The data are stated in percent relative to the proliferation of the cells treated only with DMSO (% relative to control; see FIG. 4)).
FIG. 4: Measurement of the (^3H)-thymidine incorporation (in %) into rat tumor cell lines (ASML, 1AS, G, AT6.1, MTLN3, MTLY, NM081 and MT450) as a function of the concentration of inhibitors employed. The inhibition of cell proliferation by MAE87, MAE106 and MAZ51 is dose-dependent.
For orientation: Uptake of a labelled nucleoside into DNA is a usual measure of proliferation.

ErbB2, sequence (P04626 23-1255): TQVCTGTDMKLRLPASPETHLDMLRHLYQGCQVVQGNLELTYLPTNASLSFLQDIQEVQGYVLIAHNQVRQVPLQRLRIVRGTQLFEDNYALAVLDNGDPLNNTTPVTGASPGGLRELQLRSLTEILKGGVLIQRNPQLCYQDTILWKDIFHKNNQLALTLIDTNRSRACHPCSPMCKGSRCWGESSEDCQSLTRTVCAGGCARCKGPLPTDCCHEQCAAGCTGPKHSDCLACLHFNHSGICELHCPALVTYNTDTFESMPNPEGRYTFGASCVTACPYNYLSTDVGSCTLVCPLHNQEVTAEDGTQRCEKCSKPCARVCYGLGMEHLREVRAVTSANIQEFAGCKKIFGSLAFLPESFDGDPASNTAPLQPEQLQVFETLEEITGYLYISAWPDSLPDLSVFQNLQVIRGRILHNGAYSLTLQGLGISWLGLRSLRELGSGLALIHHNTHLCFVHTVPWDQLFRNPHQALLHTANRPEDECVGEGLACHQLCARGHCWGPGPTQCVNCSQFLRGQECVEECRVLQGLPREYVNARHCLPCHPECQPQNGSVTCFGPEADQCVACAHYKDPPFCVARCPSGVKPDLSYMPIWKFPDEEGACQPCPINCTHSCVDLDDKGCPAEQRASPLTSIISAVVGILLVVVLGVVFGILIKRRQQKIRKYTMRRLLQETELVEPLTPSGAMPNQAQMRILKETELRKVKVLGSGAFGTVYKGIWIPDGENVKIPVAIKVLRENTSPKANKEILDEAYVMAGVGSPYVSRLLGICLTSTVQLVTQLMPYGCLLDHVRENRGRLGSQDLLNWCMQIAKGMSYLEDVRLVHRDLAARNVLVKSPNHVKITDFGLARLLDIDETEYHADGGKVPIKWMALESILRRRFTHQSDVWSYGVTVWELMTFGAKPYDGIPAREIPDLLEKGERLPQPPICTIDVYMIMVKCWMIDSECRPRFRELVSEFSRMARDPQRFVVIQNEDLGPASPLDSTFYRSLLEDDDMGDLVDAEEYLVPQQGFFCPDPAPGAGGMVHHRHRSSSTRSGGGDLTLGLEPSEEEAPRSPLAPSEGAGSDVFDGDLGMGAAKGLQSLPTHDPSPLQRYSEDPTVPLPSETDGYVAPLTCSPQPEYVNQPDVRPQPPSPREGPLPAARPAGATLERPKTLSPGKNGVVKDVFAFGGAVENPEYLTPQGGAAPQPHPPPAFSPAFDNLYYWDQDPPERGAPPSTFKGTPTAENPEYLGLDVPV
IGF1R, sequence (P08069 31-1367): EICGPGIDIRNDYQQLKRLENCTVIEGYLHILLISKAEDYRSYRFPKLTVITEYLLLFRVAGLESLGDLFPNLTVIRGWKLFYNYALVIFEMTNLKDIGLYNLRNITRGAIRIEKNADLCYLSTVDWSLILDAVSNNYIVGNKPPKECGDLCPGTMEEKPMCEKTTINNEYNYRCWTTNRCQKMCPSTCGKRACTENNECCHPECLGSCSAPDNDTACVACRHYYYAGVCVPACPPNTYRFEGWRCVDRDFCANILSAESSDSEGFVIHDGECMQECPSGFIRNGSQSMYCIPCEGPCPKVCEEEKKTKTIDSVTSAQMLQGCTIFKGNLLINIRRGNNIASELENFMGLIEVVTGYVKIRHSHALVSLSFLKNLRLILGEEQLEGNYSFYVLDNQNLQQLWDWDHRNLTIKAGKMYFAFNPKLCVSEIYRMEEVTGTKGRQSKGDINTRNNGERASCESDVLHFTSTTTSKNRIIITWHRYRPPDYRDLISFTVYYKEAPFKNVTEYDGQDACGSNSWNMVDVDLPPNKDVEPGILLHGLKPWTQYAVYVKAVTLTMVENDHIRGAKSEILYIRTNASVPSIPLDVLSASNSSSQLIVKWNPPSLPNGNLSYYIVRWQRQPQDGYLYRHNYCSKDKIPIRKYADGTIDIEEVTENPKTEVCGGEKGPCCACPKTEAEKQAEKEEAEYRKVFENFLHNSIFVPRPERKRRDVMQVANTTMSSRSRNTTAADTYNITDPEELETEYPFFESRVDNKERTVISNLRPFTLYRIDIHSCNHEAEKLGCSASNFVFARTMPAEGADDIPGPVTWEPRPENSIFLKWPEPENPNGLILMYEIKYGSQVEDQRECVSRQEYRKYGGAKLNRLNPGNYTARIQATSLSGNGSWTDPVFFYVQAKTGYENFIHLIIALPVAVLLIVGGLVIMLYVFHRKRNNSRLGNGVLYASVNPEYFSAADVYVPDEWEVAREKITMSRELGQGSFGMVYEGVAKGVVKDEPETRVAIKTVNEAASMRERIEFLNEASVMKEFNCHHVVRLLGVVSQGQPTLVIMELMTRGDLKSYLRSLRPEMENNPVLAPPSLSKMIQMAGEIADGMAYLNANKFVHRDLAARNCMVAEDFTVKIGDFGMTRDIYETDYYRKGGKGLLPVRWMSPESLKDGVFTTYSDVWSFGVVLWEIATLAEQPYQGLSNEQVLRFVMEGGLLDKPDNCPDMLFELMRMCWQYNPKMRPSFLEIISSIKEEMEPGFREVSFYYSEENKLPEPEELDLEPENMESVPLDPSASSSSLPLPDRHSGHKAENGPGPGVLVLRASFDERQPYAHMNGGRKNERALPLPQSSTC
FGFR1, sequence (P11362 22-822): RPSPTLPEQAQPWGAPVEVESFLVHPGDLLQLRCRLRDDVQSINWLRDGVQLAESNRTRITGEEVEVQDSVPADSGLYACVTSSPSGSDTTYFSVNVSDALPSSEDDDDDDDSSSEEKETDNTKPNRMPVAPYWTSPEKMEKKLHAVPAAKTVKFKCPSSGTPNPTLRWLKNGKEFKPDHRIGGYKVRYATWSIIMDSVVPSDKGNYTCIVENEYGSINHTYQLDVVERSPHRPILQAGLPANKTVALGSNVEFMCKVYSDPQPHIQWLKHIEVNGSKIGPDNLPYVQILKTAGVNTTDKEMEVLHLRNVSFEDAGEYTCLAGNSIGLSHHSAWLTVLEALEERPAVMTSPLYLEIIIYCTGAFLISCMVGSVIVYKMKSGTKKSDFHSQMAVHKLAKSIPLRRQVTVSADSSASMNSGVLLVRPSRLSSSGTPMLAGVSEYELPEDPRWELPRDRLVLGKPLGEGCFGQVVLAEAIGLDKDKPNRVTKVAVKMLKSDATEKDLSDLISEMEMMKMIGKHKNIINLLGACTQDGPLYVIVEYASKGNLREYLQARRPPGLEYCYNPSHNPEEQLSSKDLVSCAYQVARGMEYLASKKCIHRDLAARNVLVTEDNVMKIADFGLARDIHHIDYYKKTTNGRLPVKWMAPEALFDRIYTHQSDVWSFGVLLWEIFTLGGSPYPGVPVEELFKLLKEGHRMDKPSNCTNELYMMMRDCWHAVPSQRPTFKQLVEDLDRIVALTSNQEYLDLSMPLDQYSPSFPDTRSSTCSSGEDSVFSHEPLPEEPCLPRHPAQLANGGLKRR
VEGFR-3, sequence (P35916 25-1363): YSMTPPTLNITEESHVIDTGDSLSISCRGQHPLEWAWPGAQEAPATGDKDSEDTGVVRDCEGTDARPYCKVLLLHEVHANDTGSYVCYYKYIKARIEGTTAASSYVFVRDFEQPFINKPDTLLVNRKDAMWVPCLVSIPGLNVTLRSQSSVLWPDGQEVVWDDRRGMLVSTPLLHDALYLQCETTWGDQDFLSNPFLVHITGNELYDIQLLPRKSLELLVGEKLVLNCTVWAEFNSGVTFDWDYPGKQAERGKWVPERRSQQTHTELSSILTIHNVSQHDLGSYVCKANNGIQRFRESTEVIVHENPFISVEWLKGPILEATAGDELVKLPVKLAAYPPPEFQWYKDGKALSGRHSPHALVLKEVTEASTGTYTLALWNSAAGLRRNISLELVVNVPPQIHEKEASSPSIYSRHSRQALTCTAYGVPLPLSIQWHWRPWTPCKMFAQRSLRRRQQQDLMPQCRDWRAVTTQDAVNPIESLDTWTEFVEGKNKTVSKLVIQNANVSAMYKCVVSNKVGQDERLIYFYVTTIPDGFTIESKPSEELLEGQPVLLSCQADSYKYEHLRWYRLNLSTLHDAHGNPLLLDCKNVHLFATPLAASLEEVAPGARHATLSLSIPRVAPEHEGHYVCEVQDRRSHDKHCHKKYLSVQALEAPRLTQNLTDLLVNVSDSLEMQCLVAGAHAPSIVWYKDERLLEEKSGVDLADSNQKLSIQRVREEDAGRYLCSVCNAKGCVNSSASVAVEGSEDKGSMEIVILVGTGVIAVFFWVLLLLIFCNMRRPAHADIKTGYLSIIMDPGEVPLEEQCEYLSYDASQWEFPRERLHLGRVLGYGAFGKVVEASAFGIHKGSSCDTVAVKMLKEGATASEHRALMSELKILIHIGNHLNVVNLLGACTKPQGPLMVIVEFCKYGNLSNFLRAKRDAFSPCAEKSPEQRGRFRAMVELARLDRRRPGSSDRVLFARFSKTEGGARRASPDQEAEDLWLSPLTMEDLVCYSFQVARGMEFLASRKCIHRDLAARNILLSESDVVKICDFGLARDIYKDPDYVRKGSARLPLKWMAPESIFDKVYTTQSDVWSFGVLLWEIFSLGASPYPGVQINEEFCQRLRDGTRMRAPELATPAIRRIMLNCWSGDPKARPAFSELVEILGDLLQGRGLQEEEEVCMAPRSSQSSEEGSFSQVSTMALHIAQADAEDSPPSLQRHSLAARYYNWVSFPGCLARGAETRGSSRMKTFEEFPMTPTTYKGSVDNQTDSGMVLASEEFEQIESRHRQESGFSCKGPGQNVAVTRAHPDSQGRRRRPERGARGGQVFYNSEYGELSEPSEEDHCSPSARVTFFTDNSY

What is called inhibition is the drop in the measured response relative to a control, in per cent. Take `O=C1Nc2ccccc2C1=Cc1ccc(O)cc1O` [MAE87, 3-(2,4-Dihydroxybenzylidene)-1,3-dihydroindol-2-one]: the inhibition at 1 µg/mL in experiment [1] was 9%; in experiment [2], 45%; in experiment [3], 50%; in experiment [4], 63%; in experiment [5], 70%; in experiment [6], -1%. Besides, the inhibition at 10 µg/mL in experiment [1] came to 74%; in experiment [2] it was 84%; in experiment [3], 94%; in experiment [4] it was 94%; in experiment [5], 86%; in experiment [6] it was 65%. Also, the “inhibition of angiogenesis (network of blood vessels) in the CAM” value (“inhibition of angiogenesis” for short) in experiment [7] was “Inhibit Angiogenesis”. For the same molecule, the “inhibition of tumor cell proliferation (3H-thymidine incorporation, % relative to control)” value in experiment [8] is reported as “dose-dependent”.
As for `COc1ccc(C=C2C(=O)Nc3ccccc32)cc1F` [MAE106, 3-(3-Fluoro-4-methoxybenzylidene)-1,3-dihydroindole-2-one], the inhibition at 1 µg/mL in experiment [1] is -1%; in experiment [2], -4%; in experiment [3] it was -5%; in experiment [4], 10%; in experiment [5], 5%; in experiment [6], 5%. Also, the inhibition at 10 µg/mL in experiment [1] was 57%; in experiment [2], 41%; in experiment [3], 1%; in experiment [4], 71%; in experiment [5], 64%; in experiment [6], 28%. In addition, in experiment [7], the “inhibition of angiogenesis” value was “highly underdeveloped”. For the same molecule, the “inhibition of tumor cell proliferation (3H-thymidine incorporation, % relative to control)” value in experiment [8] is listed as “dose-dependent”.
On to `CN(C)c1ccc(C=C2C(=O)Nc3ccccc32)c2ccccc12` [MAZ51, 3-(4-Dimethylaminonaphthalen-1-ylmethylene)-1,3-dihydroindol-2-one], for which the inhibition at 1 µg/mL is 4% in experiment [1]; 11% in experiment [2]; -1% in experiment [3]; 10% in experiment [4]; 25% in experiment [5]; 7% in experiment [6]. In addition, the inhibition at 10 µg/mL in experiment [1] was 35%; in experiment [2] it was 39%; in experiment [3], 5%; in experiment [4], 68%; in experiment [5], 58%; in experiment [6], 27%. Besides, the “inhibition of angiogenesis” value in experiment [7] is “Inhibit Angiogenesis”. Moreover, the “inhibition of tumor cell proliferation (3H-thymidine incorporation, % relative to control)” value in experiment [8] is recorded as “greatest inhibitory effect; also recorded: dose-dependent”.
